# In patent US20080058373A1, “Compositions and Methods for Treating or Preventing Glaucoma or Progression Thereof” (priority 2006, published 2008):
# Test system: New Zealand White rabbits
# Assay: Intraocular pressure (IOP) in rabbits, topical dosing four times daily
# Type: in vivo
# Description: Seventy-five rabbits underwent two weeks of IOP training to condition them for IOP measurement. IOP was determined for both eyes of each animal using a Medtronic Solan, Model 30 classic pneumatonometer. Proparacaine hydrochloride 0.5% (1 drop) was delivered to each eye prior to IOP measurement. A two-point diurnal curve was established: IOP was recorded on Monday, Wednesday, and Friday of each week, at 8 a.m. and 12 p.m., with a ±1 hour range for each of these times. The time of the measurements was recorded.
# On Days 1-31, animals received daily topical doses of the appropriate test article into the right eye. Animals were dosed four times per day, with doses administered 2 hours apart. Doses were administered using a calibrated 50-μL pipette. The eyelids were held close for 10 seconds immediately following dosing. The time of each dose administration was recorded.
# Intraocular pressure (“IOP”) was determined for both eyes of each animal on Days 3, 5, 10, 12, 16, 18, 22, 24, 26, 30, and 32. IOP was evaluated with a Medtronic Solan, Model 30 classic pneumatonometer. Proparacaine hydrochloride 0.5% (1 drop) was delivered to each eye prior to IOP measurement. IOP was measured on Monday, Wednesday, and Friday of each week. A two-point diurnal curve was established: IOP was recorded at 8 a.m. and 12 p.m. on Day 3, and at 8 a.m. and 2 p.m. on later days, with a ±1 hour range for each of these times. The time of the measurements was recorded.
# Descriptive statistics were prepared for IOP data of each treatment group (left and right eyes separately) at each measurement interval. The statistics included the number of observations (“N”), mean, standard deviation (“STD”), and standard error (“SEM”). Statistical analyses were conducted on IOP results using Statistical Analysis Systems (SAS Institute, Inc., Cary, N.C., V8.0). Parameters were evaluated using analysis of variance/GLM Procedure followed by Tukey's Standardized Range Test (Tukey, 1985) for post hoc comparisons of group means. The level of significance was set at a probability of p<0.05 for all statistical procedures. Group IOP means were compared at each interval, with left and right eyes compared separately.
smiles,measurement,setting,value
Cc1ccc2c(NCC(O)(CC(C)(C)c3cc(F)cc4c3OCC4)C(F)(F)F)cccc2n1 (stereo not shown),Intraocular Pressure (MEAN),"treated right eyes, A.M. readings, Day 32, 1 mg/g (Group D)",24.9 mmHg
same,Intraocular Pressure (MEAN),"treated right eyes, A.M. readings, Day 32, 5 mg/g (Group C)",23.4 mmHg
same,Intraocular Pressure (MEAN),"treated right eyes, A.M. readings, Day 32, 10 mg/g (Group B)",23.9 mmHg
same,Intraocular Pressure (MEAN),"treated right eyes, A.M. readings, Pre-Study, 1 mg/g (Group D)",24.4 mmHg
same,Intraocular Pressure (MEAN),"treated right eyes, A.M. readings, Pre-Study, 5 mg/g (Group C)",24.8 mmHg
same,Intraocular Pressure (MEAN),"treated right eyes, A.M. readings, Pre-Study, 10 mg/g (Group B)",24.0 mmHg
same,Intraocular Pressure (MEAN),"treated right eyes, P.M. readings, Day 3, 1 mg/g (Group D)",24.7 mmHg
same,Intraocular Pressure (MEAN),"treated right eyes, P.M. readings, Day 3, 5 mg/g (Group C)",23.6 mmHg
same,Intraocular Pressure (MEAN),"treated right eyes, P.M. readings, Day 3, 10 mg/g (Group B)",23.1 mmHg
same,Intraocular Pressure (MEAN),"treated right eyes, P.M. readings, Day 5, 1 mg/g (Group D)",25.5 mmHg
same,Intraocular Pressure (MEAN),"treated right eyes, P.M. readings, Day 5, 5 mg/g (Group C)",24.8 mmHg
same,Intraocular Pressure (MEAN),"treated right eyes, P.M. readings, Day 5, 10 mg/g (Group B)",25.7 mmHg
same,Intraocular Pressure (MEAN),"treated right eyes, P.M. readings, Day 10, 1 mg/g (Group D)",25.3 mmHg
same,Intraocular Pressure (MEAN),"treated right eyes, P.M. readings, Day 10, 5 mg/g (Group C)",25.6 mmHg
same,Intraocular Pressure (MEAN),"treated right eyes, P.M. readings, Day 10, 10 mg/g (Group B)",24.3 mmHg
same,Intraocular Pressure (MEAN),"treated right eyes, P.M. readings, Day 12, 1 mg/g (Group D)",24.0 mmHg
same,Intraocular Pressure (MEAN),"treated right eyes, P.M. readings, Day 12, 5 mg/g (Group C)",23.4 mmHg
same,Intraocular Pressure (MEAN),"treated right eyes, P.M. readings, Day 12, 10 mg/g (Group B)",23.8 mmHg
same,Intraocular Pressure (MEAN),"treated right eyes, P.M. readings, Day 16, 1 mg/g (Group D)",22.0 mmHg
same,Intraocular Pressure (MEAN),"treated right eyes, P.M. readings, Day 16, 5 mg/g (Group C)",21.4 mmHg
same,Intraocular Pressure (MEAN),"treated right eyes, P.M. readings, Day 16, 10 mg/g (Group B)",21.6 mmHg
same,Intraocular Pressure (MEAN),"treated right eyes, P.M. readings, Day 18, 1 mg/g (Group D)",23.1 mmHg
same,Intraocular Pressure (MEAN),"treated right eyes, P.M. readings, Day 18, 5 mg/g (Group C)",21.6 mmHg
same,Intraocular Pressure (MEAN),"treated right eyes, P.M. readings, Day 18, 10 mg/g (Group B)",22.5 mmHg
same,Intraocular Pressure (MEAN),"treated right eyes, P.M. readings, Day 22, 1 mg/g (Group D)",22.5 mmHg
same,Intraocular Pressure (MEAN),"treated right eyes, P.M. readings, Day 22, 5 mg/g (Group C)",22.8 mmHg
same,Intraocular Pressure (MEAN),"treated right eyes, P.M. readings, Day 22, 10 mg/g (Group B)",23.1 mmHg
same,Intraocular Pressure (MEAN),"treated right eyes, P.M. readings, Day 24, 1 mg/g (Group D)",23.6 mmHg
same,Intraocular Pressure (MEAN),"treated right eyes, P.M. readings, Day 24, 5 mg/g (Group C)",23.4 mmHg
same,Intraocular Pressure (MEAN),"treated right eyes, P.M. readings, Day 24, 10 mg/g (Group B)",22.8 mmHg
same,Intraocular Pressure (MEAN),"treated right eyes, P.M. readings, Day 26, 1 mg/g (Group D)",22.6 mmHg
same,Intraocular Pressure (MEAN),"treated right eyes, P.M. readings, Day 26, 5 mg/g (Group C)",22.2 mmHg
same,Intraocular Pressure (MEAN),"treated right eyes, P.M. readings, Day 26, 10 mg/g (Group B)",20.9 mmHg
same,Intraocular Pressure (MEAN),"treated right eyes, P.M. readings, Day 30, 10 mg/g (Group B)",22.4 mmHg
same,Intraocular Pressure (MEAN),"untreated left eyes, P.M. readings, Day 3, 1 mg/g (Group D)",25.0 mmHg
same,Intraocular Pressure (MEAN),"untreated left eyes, P.M. readings, Day 3, 5 mg/g (Group C)",23.9 mmHg
same,Intraocular Pressure (MEAN),"untreated left eyes, P.M. readings, Day 3, 10 mg/g (Group B)",23.3 mmHg
same,Intraocular Pressure (MEAN),"untreated left eyes, P.M. readings, Day 5, 1 mg/g (Group D)",24.7 mmHg
same,Intraocular Pressure (MEAN),"untreated left eyes, P.M. readings, Day 5, 5 mg/g (Group C)",24.8 mmHg
same,Intraocular Pressure (MEAN),"untreated left eyes, P.M. readings, Day 5, 10 mg/g (Group B)",25.2 mmHg
same,Intraocular Pressure (MEAN),"untreated left eyes, P.M. readings, Day 10, 1 mg/g (Group D)",24.9 mmHg
same,Intraocular Pressure (MEAN),"untreated left eyes, P.M. readings, Day 10, 5 mg/g (Group C)",24.6 mmHg
same,Intraocular Pressure (MEAN),"untreated left eyes, P.M. readings, Day 10, 10 mg/g (Group B)",23.5 mmHg
same,Intraocular Pressure (MEAN),"untreated left eyes, P.M. readings, Day 12, 1 mg/g (Group D)",23.7 mmHg
same,Intraocular Pressure (MEAN),"untreated left eyes, P.M. readings, Day 12, 5 mg/g (Group C)",23.3 mmHg
same,Intraocular Pressure (MEAN),"untreated left eyes, P.M. readings, Day 12, 10 mg/g (Group B)",24.1 mmHg
same,Intraocular Pressure (MEAN),"untreated left eyes, P.M. readings, Day 16, 1 mg/g (Group D)",21.9 mmHg
same,Intraocular Pressure (MEAN),"untreated left eyes, P.M. readings, Day 16, 5 mg/g (Group C)",20.4 mmHg
same,Intraocular Pressure (MEAN),"untreated left eyes, P.M. readings, Day 16, 10 mg/g (Group B)",21.4 mmHg
same,Intraocular Pressure (MEAN),"untreated left eyes, P.M. readings, Day 18, 1 mg/g (Group D)",22.7 mmHg
same,Intraocular Pressure (MEAN),"untreated left eyes, P.M. readings, Day 18, 5 mg/g (Group C)",21.9 mmHg
same,Intraocular Pressure (MEAN),"untreated left eyes, P.M. readings, Day 18, 10 mg/g (Group B)",22.1 mmHg
same,Intraocular Pressure (MEAN),"untreated left eyes, P.M. readings, Day 22, 1 mg/g (Group D)",22.1 mmHg
same,Intraocular Pressure (MEAN),"untreated left eyes, P.M. readings, Day 22, 5 mg/g (Group C)",22.1 mmHg
same,Intraocular Pressure (MEAN),"untreated left eyes, P.M. readings, Day 22, 10 mg/g (Group B)",22.6 mmHg
same,Intraocular Pressure (MEAN),"untreated left eyes, P.M. readings, Day 24, 1 mg/g (Group D)",22.9 mmHg
same,Intraocular Pressure (MEAN),"untreated left eyes, P.M. readings, Day 24, 5 mg/g (Group C)",22.2 mmHg
same,Intraocular Pressure (MEAN),"untreated left eyes, P.M. readings, Day 24, 10 mg/g (Group B)",22.8 mmHg
same,Intraocular Pressure (MEAN),"untreated left eyes, P.M. readings, Day 26, 1 mg/g (Group D)",22.1 mmHg
same,Intraocular Pressure (MEAN),"untreated left eyes, P.M. readings, Day 26, 5 mg/g (Group C)",22.3 mmHg
same,Intraocular Pressure (MEAN),"untreated left eyes, P.M. readings, Day 26, 10 mg/g (Group B)",21.4 mmHg
same,Intraocular Pressure (MEAN),"untreated left eyes, P.M. readings, Day 30, 1 mg/g (Group D)",21.3 mmHg
same,Intraocular Pressure (MEAN),"untreated left eyes, P.M. readings, Day 30, 5 mg/g (Group C)",20.9 mmHg
same,Intraocular Pressure (MEAN),"untreated left eyes, P.M. readings, Day 30, 10 mg/g (Group B)",21.7 mmHg
same,Intraocular Pressure (MEAN),"untreated left eyes, P.M. readings, Day 32, 1 mg/g (Group D)",21.9 mmHg
same,Intraocular Pressure (MEAN),"untreated left eyes, P.M. readings, Day 32, 5 mg/g (Group C)",21.5 mmHg
same,Intraocular Pressure (MEAN),"untreated left eyes, P.M. readings, Day 32, 10 mg/g (Group B)",22.6 mmHg
same,Intraocular Pressure (MEAN),"untreated left eyes, P.M. readings, Pre-Study, 1 mg/g (Group D)",24.2 mmHg
same,Intraocular Pressure (MEAN),"untreated left eyes, P.M. readings, Pre-Study, 5 mg/g (Group C)",24.4 mmHg
same,Intraocular Pressure (MEAN),"untreated left eyes, P.M. readings, Pre-Study, 10 mg/g (Group B)",23.9 mmHg
